What all share (type): biochemical
Holding throughout (conditions): single concentration (200, 100 or 50 μM), in duplicate, versus the positive control (vehicle)

Assay [1] concerns the target T1, DNA gyrase (Escherichia coli, UniProt P0AES4+P0AES6).
T1 construct: purchased Inspiralis, UK
Briefly: DNA gyrase supercoiling assay (E. coli). The procedure: (§1) The above compounds were tested for the inhibition of the enzyme DNA gyrase in a gyrase supercoiling assay and for the inhibition of the enzyme topoisomerase IV in a decatenation assay, in both Gram positive and Gram negative bacteria, according to the following methods.
(§2) Both the assays were carried out according to a set-up method modified from the article to Blanche F, et al. “Differential Behaviors of Staphylococcus aureus and Escherichia coli Type II DNA Topoisomerases”, Antimicrob.
(§3) The compounds were screened at single concentration (200, 100 or 50 μM), in duplicate.
(§4) Ciprofloxacin and novobiocin were used as reference compounds, at single concentration of 200 and 50 μM, respectively.
(§5) DNA Gyrase Supercoiling Assay.
(§6) Reagents from S. aureus and E. coli Gyrase Supercoiling Assay kits (Inspiralis, UK) were used. A master mix with a total volume sufficient for the number of reactions to perform was prepared with the following reagents: 5× assay buffer, relaxed pBR322 substrate (0.5 μg/reaction), RNase-DNase free water. Aliquotes of this mix were dispensed in each tube, then 10× compound stock solutions or vehicle control (DMSO), were added to each reaction tube.
(§7) Reaction was started with E. Coli (2 U/reaction) or S. aureus (1 U/reaction) gyrase enzyme addition.
(§8) A sample added with an equal volume of dilution buffer was used as negative control (without enzyme).
(§9) The reaction tubes were gentle vortexed and incubated 30 minutes at 37° C. Each reaction was stopped by adding 30 μl of Stop Buffer and 30 μl chloroform/isoamyl alcohol (24/1), briefly vortexed for 5-10 seconds and centrifuged at 20000×g for 2 minutes. Samples were loaded onto 1% agarose gel and subjected to electrophoresis for 1 hour at 80V constant voltage in TAE (40 mM Tris-acetate, 2 mM EDTA).
(§10) Data acquisition and analysis. Treatment of relaxed pBR322 with DNA gyrase converted the relaxed topoisomers (DNAs of different linking number) to the supercoiled form of the plasmid, which migrates faster on an agarose gel. An upper band might also be visible, which consists of open-circular (nicked) DNA which is present in the relaxed substrate but co-migrates with some of the relaxed topoisomers.
(§11) Bands were visualized by ethidium bromide staining (dil 1:20000) for 30 minutes followed by destaining in distilled water for 10 minutes.
(§12) In order to evaluate the compounds activity on the enzyme, the bands of supercoiled DNAs in the gel were photographed by a digital imaging system ImageQuant LAS 4000 (GE Healthcare) according to manufacturer's instructions.
(§13) The fluorescent intensity of each band was analysed by ImageQuant TL software and it was expressed as volume (volume of the uncalibrated quantity of material in the image feature after subtraction of the background intensity by using rolling ball method).
(§14) Each band intensity was compared, as percentage, to vehicle sample band intensity, which served as positive control, on the same gel.
(§15) Inhibitory activity was expressed as percent of inhibition versus the positive control.

Assay [2] addresses T2, Topoisomerase IV (Escherichia coli, UniProt P0AFI2+P20083).
T2 construct: purchased Inspiralis, UK
Briefly: Topoisomerase IV decatenation assay (E. coli). On the procedure:
as §1, §2, §3, §4
(§16) Topoisomerase IV Decatenation Assay
(§17) S. aureus and E. coli Topoisomerase IV decatenation kits (Inspiralis, UK) were used. A master mix with a total volume sufficient for the number of reactions to perform was prepared with the following reagents: 5× assay buffer (50 mM HEPES-KOH (pH 7.6), 100 mM potassium glutamate, 10 mM magnesium acetate, 10 mM DTT, 1 mM ATP, 50 μg/ml albumin), kDNA substrate (200 ng/reaction), RNase-DNase free water. Aliquots of this mix were dispensed in each tube, then 10× compound stock solutions or vehicle control (DMSO), were added in each reaction tube.
(§18) Reaction was started with Topoisomerase IV enzyme (0.5 U/reaction) addition.
as §8
(§19) The reaction tubes were gentle vortexed and incubated 30 minutes at 37° C. Each reaction was stopped by adding 30 μl of Stop Buffer and 30 μl of chloroform/isoamyl alcohol (24/1), briefly vortexed for 5-10 seconds and centrifuged at 20000×g for 2 minutes. Samples taken from the upper phase were loaded into 1% agarose gel and subjected to electrophoresis for 1 hour at 80V constant voltage in TAE (40 mM Tris-acetate, 2 mM EDTA).
(§20) Data acquisition and analysis. Due to the high molecular mass, kDNA could not enter an agarose gel under normal electrophoresis conditions, but remained in the wells. In the presence of Topo IV topoisomerase mini-circles (2.5 Kb) were released from kDNA by decatenation and were quickly and easily resolved in the gel at relatively high voltages.
as §11
(§21) For single concentration screening assay, in order to evaluate the compounds activity on the enzymes, the bands of decatenated DNAs in the gel were photographed by a digital imaging system ImageQuant LAS 4000 (GE Healthcare) according to manufacturer's instructions.
(§22) The fluorescent intensity of each band was analyzed by ImageQuant TL software and it was expressed as volume (volume of the uncalibrated quantity of material in the image feature after subtraction of the background intensity by using rolling ball method).
as §14, §15

Assay [3] concerns the target T3, DNA gyrase (Staphylococcus aureus, UniProt P0A0K8+P20831).
T3 construct: purchased Inspiralis, UK
Briefly: DNA gyrase supercoiling assay (S. aureus). On the procedure:
as §1, §2, §3, §4, §5, §6, §7, §8, §9, §10, §11, §12, §13, §14, §15

Assay [4] has as its target T4, Topoisomerase IV (Staphylococcus aureus, UniProt P0C1S7+P0C1U9).
T4 construct: purchased Inspiralis, UK
Briefly: Topoisomerase IV decatenation assay (S. aureus). On the procedure: as §1, §2, §3, §4, §16, §17, §18, §8, §19, §20, §11, §21, §22, §14, §15

Structures can show the parent of a compound that is named as a salt.

T3 sequence (P20831 whole entry): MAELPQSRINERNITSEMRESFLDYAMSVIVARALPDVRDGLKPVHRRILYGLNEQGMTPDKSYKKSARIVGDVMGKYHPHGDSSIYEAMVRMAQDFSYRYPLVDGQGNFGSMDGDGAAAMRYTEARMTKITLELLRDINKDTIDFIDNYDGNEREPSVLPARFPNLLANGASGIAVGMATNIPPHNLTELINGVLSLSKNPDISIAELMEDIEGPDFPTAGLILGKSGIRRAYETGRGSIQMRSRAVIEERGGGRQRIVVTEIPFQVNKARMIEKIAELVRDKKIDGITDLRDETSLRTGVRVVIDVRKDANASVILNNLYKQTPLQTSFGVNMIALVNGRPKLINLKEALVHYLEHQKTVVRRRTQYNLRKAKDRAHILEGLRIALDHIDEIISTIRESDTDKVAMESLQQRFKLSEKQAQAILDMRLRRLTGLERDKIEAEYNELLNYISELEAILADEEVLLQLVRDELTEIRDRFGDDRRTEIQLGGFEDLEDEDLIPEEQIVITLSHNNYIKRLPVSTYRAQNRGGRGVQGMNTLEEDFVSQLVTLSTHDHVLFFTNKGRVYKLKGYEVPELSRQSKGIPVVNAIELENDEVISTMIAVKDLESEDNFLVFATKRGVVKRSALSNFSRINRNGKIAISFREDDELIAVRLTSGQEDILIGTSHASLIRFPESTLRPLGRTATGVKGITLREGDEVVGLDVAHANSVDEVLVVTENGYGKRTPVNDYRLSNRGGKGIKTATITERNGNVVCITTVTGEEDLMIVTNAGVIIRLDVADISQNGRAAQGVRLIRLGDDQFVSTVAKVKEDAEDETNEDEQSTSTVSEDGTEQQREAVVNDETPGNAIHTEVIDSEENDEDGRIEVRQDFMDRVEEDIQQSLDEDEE
T3 sequence (P0A0K8 whole entry): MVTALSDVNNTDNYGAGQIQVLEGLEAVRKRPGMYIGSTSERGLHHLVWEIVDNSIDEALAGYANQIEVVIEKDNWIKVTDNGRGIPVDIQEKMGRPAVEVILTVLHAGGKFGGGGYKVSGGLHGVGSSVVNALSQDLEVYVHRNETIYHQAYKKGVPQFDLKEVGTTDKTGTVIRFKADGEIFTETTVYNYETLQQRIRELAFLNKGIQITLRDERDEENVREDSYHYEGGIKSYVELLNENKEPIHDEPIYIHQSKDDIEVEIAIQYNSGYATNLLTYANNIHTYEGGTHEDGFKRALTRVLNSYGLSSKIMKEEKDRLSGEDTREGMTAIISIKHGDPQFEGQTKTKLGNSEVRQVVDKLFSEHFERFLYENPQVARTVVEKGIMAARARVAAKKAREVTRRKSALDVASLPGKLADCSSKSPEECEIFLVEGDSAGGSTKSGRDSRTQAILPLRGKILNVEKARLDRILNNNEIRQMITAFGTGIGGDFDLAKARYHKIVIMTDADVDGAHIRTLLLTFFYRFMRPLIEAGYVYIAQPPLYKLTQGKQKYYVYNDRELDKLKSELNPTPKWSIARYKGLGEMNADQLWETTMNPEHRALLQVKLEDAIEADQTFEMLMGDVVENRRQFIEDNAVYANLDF
T1 sequence (P0AES4 whole entry, one chain of several): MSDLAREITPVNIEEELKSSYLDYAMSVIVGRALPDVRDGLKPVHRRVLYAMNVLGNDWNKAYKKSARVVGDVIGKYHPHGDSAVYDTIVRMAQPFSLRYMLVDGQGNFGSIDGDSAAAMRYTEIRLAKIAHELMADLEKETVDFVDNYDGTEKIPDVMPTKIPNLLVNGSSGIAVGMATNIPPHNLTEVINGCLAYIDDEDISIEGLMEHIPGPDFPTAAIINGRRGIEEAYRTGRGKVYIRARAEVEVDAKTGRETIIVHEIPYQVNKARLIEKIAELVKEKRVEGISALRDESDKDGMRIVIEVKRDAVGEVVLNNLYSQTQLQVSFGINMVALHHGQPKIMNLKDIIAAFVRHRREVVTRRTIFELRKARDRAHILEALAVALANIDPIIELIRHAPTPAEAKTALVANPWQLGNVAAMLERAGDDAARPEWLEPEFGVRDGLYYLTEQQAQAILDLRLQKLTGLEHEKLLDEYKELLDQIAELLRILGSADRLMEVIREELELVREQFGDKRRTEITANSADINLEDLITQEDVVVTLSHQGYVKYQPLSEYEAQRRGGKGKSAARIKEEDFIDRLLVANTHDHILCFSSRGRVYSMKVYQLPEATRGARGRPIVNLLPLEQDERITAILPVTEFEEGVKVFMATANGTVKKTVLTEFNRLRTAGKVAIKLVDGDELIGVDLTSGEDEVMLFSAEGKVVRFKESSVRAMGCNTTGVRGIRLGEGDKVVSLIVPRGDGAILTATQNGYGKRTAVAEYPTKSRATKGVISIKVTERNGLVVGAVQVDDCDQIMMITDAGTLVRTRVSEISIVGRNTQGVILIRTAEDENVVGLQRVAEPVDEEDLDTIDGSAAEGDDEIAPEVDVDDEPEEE
T2 sequence (P20083 whole entry): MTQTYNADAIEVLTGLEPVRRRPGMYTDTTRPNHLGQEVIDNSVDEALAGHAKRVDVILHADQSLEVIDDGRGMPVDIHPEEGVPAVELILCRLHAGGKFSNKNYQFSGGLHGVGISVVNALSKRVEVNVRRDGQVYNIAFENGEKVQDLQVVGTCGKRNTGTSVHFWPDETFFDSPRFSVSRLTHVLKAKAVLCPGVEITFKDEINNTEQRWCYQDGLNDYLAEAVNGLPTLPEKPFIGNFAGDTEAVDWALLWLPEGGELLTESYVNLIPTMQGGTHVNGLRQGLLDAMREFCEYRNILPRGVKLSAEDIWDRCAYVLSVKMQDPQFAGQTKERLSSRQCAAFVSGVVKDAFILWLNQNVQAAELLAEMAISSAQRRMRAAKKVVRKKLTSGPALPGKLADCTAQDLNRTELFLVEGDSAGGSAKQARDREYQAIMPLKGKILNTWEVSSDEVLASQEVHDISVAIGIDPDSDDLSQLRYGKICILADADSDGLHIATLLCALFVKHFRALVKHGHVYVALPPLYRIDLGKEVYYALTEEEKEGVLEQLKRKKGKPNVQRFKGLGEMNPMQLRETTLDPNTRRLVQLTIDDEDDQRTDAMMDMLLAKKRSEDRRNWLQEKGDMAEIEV
T2 sequence (P0AFI2 whole entry): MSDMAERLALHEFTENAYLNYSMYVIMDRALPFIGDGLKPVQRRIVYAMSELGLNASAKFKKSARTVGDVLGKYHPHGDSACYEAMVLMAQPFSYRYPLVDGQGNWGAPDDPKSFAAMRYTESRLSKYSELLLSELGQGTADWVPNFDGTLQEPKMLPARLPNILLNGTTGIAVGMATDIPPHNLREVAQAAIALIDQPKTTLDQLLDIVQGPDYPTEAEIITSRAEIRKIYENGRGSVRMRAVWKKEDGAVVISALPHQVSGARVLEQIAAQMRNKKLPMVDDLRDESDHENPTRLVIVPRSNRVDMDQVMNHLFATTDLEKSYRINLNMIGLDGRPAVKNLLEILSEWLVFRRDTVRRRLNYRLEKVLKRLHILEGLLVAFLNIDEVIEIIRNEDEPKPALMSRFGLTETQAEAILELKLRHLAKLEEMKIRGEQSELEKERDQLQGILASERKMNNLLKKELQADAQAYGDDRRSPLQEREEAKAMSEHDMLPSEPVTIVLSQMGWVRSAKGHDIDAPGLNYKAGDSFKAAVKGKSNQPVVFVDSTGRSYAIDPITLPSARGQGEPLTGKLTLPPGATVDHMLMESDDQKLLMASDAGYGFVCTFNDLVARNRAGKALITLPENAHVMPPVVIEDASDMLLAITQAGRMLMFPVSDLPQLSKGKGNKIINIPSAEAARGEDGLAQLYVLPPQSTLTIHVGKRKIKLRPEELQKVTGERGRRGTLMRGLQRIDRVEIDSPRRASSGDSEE

For `O=c1oc2ccccc2cc1NCCCN1CCN(c2nccc3ccccc23)CC1` [Compound 87, 3-({3-[4-(isoquinolin-1-yl)piperazin-1-yl]propyl}amino)-2H-chromen-2-one hydrochloride], the “% inhibition DNA gyrase” value on DNA gyrase [1] is listed as 79%; at DNA gyrase [3] it was 96%. In addition, the “% inhibition Topo IV” value on Topoisomerase IV [2] and on Topoisomerase IV [4] was “n/a (n/a = not active)” throughout.
`O=c1cc(NCCCN2CCN(c3cccc4ccccc34)CC2)c2ccccc2o1` [Compound 50, 4-({3-[4-(naphthalen-1-yl)piperazin-1-yl]propyl}amino)-2H-chromen-2-one hydrochloride]: the “% inhibition DNA gyrase” value at DNA gyrase [1] is recorded as 92%; at DNA gyrase [3], “n/a (n/a = not active)”. The “% inhibition Topo IV” value on Topoisomerase IV [2] and at Topoisomerase IV [4] was “n/a (n/a = not active)” throughout.
Take `O=C(NCCCN1CCN(c2nccc3ccccc23)CC1)c1cccnc1` [Compound 2, N-{3-[4-(isoquinolin-1-yl)piperazin-1-yl]propyl}pyridine-3-carboxamide hydrochloride]: the “% inhibition DNA gyrase” value on DNA gyrase [1] and on DNA gyrase [3] was “n/a (n/a = not active)” in each case. The “% inhibition Topo IV” value at Topoisomerase IV [2] is given as 65%; on Topoisomerase IV [4], “n/a (n/a = not active)”.
As for `O=c1cc(NCCCN2CCN(c3nccc4ccc(F)cc34)CC2)c2c(o1)CCNC2` [Compound 122, 4-({3-[4-(7-fluoroisoquinolin-1-yl)piperazin-1-yl]propyl}amino)-5,6,7,8-tetrahydro-2H-pyrano[3,2-c]pyridin-2-one hydrochloride], the “% inhibition DNA gyrase” value on DNA gyrase [1] was 58%; on DNA gyrase [3], “n/a (n/a = not active)”. Also, the “% inhibition Topo IV” value at Topoisomerase IV [2] and on Topoisomerase IV [4] was “n/a (n/a = not active)” in each case.
`COc1ccc2c(N3CCN(CCCNC(=O)c4cccnc4)CC3)nccc2c1` [Compound 36, N-{3-[4-(6-methoxyisoquinolin-1-yl)piperazin-1-yl]propyl}pyridine-3-carboxamide hydrochloride]: the “% inhibition DNA gyrase” value on DNA gyrase [1] was “n/a (n/a = not active)”; at DNA gyrase [3], 90%. The “% inhibition Topo IV” value on Topoisomerase IV [2] and on Topoisomerase IV [4] was “n/a (n/a = not active)” each time.
On to `O=C(NCCCN1CCN(c2nccc3cc(F)ccc23)CC1)c1cccnc1` [Compound 45, N-{3-[4-(6-fluoroisoquinolin-1-yl)piperazin-1-yl]propyl}pyridine-3-carboxamide hydrochloride], for which the results for the “% inhibition DNA gyrase” value at DNA gyrase [1] and at DNA gyrase [3] were “n/a (n/a = not active)” and 81%, respectively. Further, the “% inhibition Topo IV” value on Topoisomerase IV [2] and on Topoisomerase IV [4] was “n/a (n/a = not active)” each time.
As for `Cc1cccc2oc(=O)cc(NCCCN3CCN(c4nccc5ccc(F)cc45)CC3)c12` [Compound 96, 4-({3-[4-(7-fluoroisoquinolin-1-yl)piperazin-1-yl]propyl}amino)-5-methyl-2H-chromen-2-one hydrochloride], the “% inhibition DNA gyrase” value turned out to be 88% at DNA gyrase [1] and 91% at DNA gyrase [3]. In addition, the “% inhibition Topo IV” value on Topoisomerase IV [2] and on Topoisomerase IV [4] was “n/a (n/a = not active)” each time.
For the compound `O=c1cc(NCCCN2CCN(c3nccc4ccccc34)CC2CC(F)(F)F)c2ccccc2o1` (centres unmarked) [Compound 83, 4-({3-[4-(isoquinolin-1-yl)-2-(2,2,2-trifluoroethyl)piperazin-1-yl]propyl}amino)-2H-chromen-2-one hydrochloride], the “% inhibition DNA gyrase” value at DNA gyrase [1] is 69%; on DNA gyrase [3], “n/a (n/a = not active)”. Moreover, the “% inhibition Topo IV” value on Topoisomerase IV [2] and at Topoisomerase IV [4] was “n/a (n/a = not active)” in each case.
Turning to `O=c1cc(NC[C@H](O)[C@@H](O)C2CCN(c3nccc4ccc(F)cc34)CC2)c2ccccc2o1` (racemic) [Compound 128, (2S,3S) and (2R,3R) 4-({3-[1-(7-fluoroisoquinolin-1-yl)piperidin-4-yl]-2,3-dihydroxypropyl}amino)-2H-chromen-2-one hydrochloride], the results for the “% inhibition DNA gyrase” value on DNA gyrase [1] and on DNA gyrase [3] were “n/a (n/a = not active)” and 66%, respectively. The “% inhibition Topo IV” value on Topoisomerase IV [2] and on Topoisomerase IV [4] was “n/a (n/a = not active)” throughout.
Turning to `C[N+]1(CCCc2nccc3ccccc23)CCC(Nc2cc(=O)oc3ccccc23)CC1` (centres unmarked) [Compound 123], the “% inhibition DNA gyrase” value was 52% at DNA gyrase [1] and “n/a (n/a = not active)” on DNA gyrase [3]. The “% inhibition Topo IV” value on Topoisomerase IV [2] and at Topoisomerase IV [4] was “n/a (n/a = not active)” each time.
Turning to `O=C(O)CC(NCCNC1CCN(c2nccc3ccc(F)cc23)CC1)C1CCCCC1` (centres unmarked) [Compound 190, lithium 3-cyclohexyl-3-[(2-{[1-(7-fluoroisoquinolin-1-yl)piperidin-4-yl]amino}ethyl)amino]propanoate], the figures for the “% inhibition DNA gyrase” value on DNA gyrase [1] and on DNA gyrase [3] were 61% and 73%, respectively. The “% inhibition Topo IV” value at Topoisomerase IV [2] and at Topoisomerase IV [4] was “n/a (n/a = not active)” in each case.
Turning to `Cc1ccc2c(N3CCN(CCCNC(=O)c4cccnc4)CC3)nccc2c1` [Compound 35, N-{3-[4-(6-methylisoquinolin-1-yl)piperazin-1-yl]propyl}pyridine-3-carboxamide], the “% inhibition DNA gyrase” value on DNA gyrase [1] is “n/a (n/a = not active)”; on DNA gyrase [3], 78%. Besides, the “% inhibition Topo IV” value at Topoisomerase IV [2] and at Topoisomerase IV [4] was “n/a (n/a = not active)” in each case.
On to `O=C(CN1CCC(Nc2cc(=O)oc3ccccc23)CC1)NCc1nccc2ccccc12` [Compound 118, N-(isoquinolin-1-ylmethyl)-2-{4-[(2-oxo-2H-chromen-4-yl)amino]piperidin-1-yl}acetamide], for which the “% inhibition DNA gyrase” value on DNA gyrase [1] is 78%; on DNA gyrase [3] it was “n/a (n/a = not active)”. The “% inhibition Topo IV” value on Topoisomerase IV [2] and at Topoisomerase IV [4] was “n/a (n/a = not active)” throughout.
Consider `O=c1cc(N2CCN(CCCNc3cc(=O)oc4ccccc34)CC2)c2ccccc2[nH]1` [Compound 68, 4-(4-{3-[(2-oxo-2H-chromen-4-yl)amino]propyl}piperazin-1-yl)quinolin-2(1H)-one hydrochloride], for which the “% inhibition DNA gyrase” value at DNA gyrase [1] was 100%; on DNA gyrase [3], “n/a (n/a = not active)”. The “% inhibition Topo IV” value on Topoisomerase IV [2] and on Topoisomerase IV [4] was “n/a (n/a = not active)” each time.

(Values after patent publication US10369130B2, “Antibacterial compounds” (AZIENDE CHIMICHE RIUNITE ANGELINI FRANCESCO A.C.R.A.F. …, priority 2014, dated 2019).)
